According to the supplement of paper PMC10307832:

What was measured:
Assay in all cases: relative viability (nuclei count vs DMSO), 5 days (fraction); higher = more cells survive
LCLC-103H = system: LCLC-103H
Procedure, shortened: (§1)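 Relative viability divides the nuclei count in treated wells by that in vehicle wells. Lung cancer cell lines were seeded in 1536-well plates, dosed by pin tool the next day, and fixed and stained after 5 days in one step with final 0.05% Triton X-100, 1% formaldehyde and 1 ug/ml Hoechst. Dosing was a single drug or a fixed anchor-drug dose plus five library-drug doses (not always all listed) in √10 steps, and values are medians of duplicate plates imaged at 4×.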

NCI-H2023 = system: NCI-H2023
Procedure, shortened: as §1

NCI-H647 = system: NCI-H647
Procedure, shortened: as §1

NCI-H2087 = system: NCI-H2087
Procedure, shortened: as §1

NCI-H1993 = system: NCI-H1993
Procedure, shortened: as §1

NCI-H650 = system: NCI-H650
Procedure, shortened: as §1

LOU-NH91 = system: LOU-NH91
Procedure, shortened: as §1

EMC-BAC-2 = system: EMC-BAC-2
Procedure, shortened: as §1

HCC-44 = system: HCC-44
Procedure, shortened: as §1

NCI-H23 = system: NCI-H23
Procedure, shortened: as §1

HARA = system: HARA
Procedure, shortened: as §1

BEN = system: BEN
Procedure, shortened: as §1

NCI-H2126 = system: NCI-H2126
Procedure, shortened: as §1

201T = system: 201T
Procedure, shortened: as §1

NCI-H838 = system: NCI-H838
Procedure, shortened: as §1

NCI-H596 = system: NCI-H596
Procedure, shortened: as §1

NCI-H727 = system: NCI-H727
Procedure, shortened: as §1

NCI-H1666 = system: NCI-H1666
Procedure, shortened: as §1

NCI-H2347 = system: NCI-H2347
Procedure, shortened: as §1

NCI-H441 = system: NCI-H441
Procedure, shortened: as §1

NCI-H2009 = system: NCI-H2009
Procedure, shortened: as §1

NCI-H3122 = system: NCI-H3122
Procedure, shortened: as §1

Compound: CC1(C)CCC(c2ccc(Cl)cc2)=C(CN2CCN(c3ccc(C(=O)NS(=O)(=O)c4ccc(N[C@H](CCN5CCOCC5)CSc5ccccc5)c(S(=O)(=O)C(F)(F)F)c4)cc3)CC2)C1 [Navitoclax] + CC(C)C[C@H](NC(=O)[C@H](Cc1ccccc1)NC(=O)c1cnccn1)B(O)O [Bortezomib] (partner 0.002 µM)
- relative viability (LCLC-103H; first compound 0.005 µM): 1.13
- relative viability (LCLC-103H; first compound 0.01581 µM): 1.25
- relative viability (LCLC-103H; first compound 0.05 µM): 1.18
- relative viability (LCLC-103H; first compound 0.1581 µM): 1.15
- relative viability (LCLC-103H; first compound 0.5 µM): 1.06
- relative viability (NCI-H2023; first compound 0.005 µM): 1.06
- relative viability (NCI-H2023; first compound 0.01581 µM): 1.18
- relative viability (NCI-H2023; first compound 0.05 µM): 0.857
- relative viability (NCI-H2023; first compound 0.1581 µM): 0.906
- relative viability (NCI-H2023; first compound 0.5 µM): 0.938
- relative viability (NCI-H647; first compound 0.005 µM): 0.686
- relative viability (NCI-H647; first compound 0.01581 µM): 1.22
- relative viability (NCI-H647; first compound 0.05 µM): 0.866
- relative viability (NCI-H647; first compound 0.1581 µM): 0.761
- relative viability (NCI-H647; first compound 0.5 µM): 0.863
- relative viability (NCI-H2087; first compound 0.005 µM): 0.905
- relative viability (NCI-H2087; first compound 0.01581 µM): 0.979
- relative viability (NCI-H2087; first compound 0.05 µM): 0.504
- relative viability (NCI-H2087; first compound 0.1581 µM): 0.612
- relative viability (NCI-H2087; first compound 0.5 µM): 0.772
- relative viability (NCI-H1993; first compound 0.005 µM): 1.11
- relative viability (NCI-H1993; first compound 0.01581 µM): 1.58
- relative viability (NCI-H1993; first compound 0.05 µM): 0.961
- relative viability (NCI-H1993; first compound 0.1581 µM): 0.958
- relative viability (NCI-H1993; first compound 0.5 µM): 1.06
- relative viability (NCI-H650; first compound 0.005 µM): 0.742
- relative viability (NCI-H650; first compound 0.01581 µM): 0.959
- relative viability (NCI-H650; first compound 0.05 µM): 0.817
- relative viability (NCI-H650; first compound 0.1581 µM): 0.767
- relative viability (NCI-H650; first compound 0.5 µM): 0.837
- relative viability (LOU-NH91; first compound 0.005 µM): 0.418
- relative viability (LOU-NH91; first compound 0.01581 µM): 0.485
- relative viability (LOU-NH91; first compound 0.05 µM): 0.391
- relative viability (LOU-NH91; first compound 0.1581 µM): 0.449
- relative viability (LOU-NH91; first compound 0.5 µM): 0.339
- relative viability (EMC-BAC-2; first compound 0.005 µM): 1.04
- relative viability (EMC-BAC-2; first compound 0.01581 µM): 1.19
- relative viability (EMC-BAC-2; first compound 0.05 µM): 1.01
- relative viability (EMC-BAC-2; first compound 0.1581 µM): 1.03
- relative viability (EMC-BAC-2; first compound 0.5 µM): 1.12
- relative viability (HCC-44; first compound 0.005 µM): 0.859
- relative viability (HCC-44; first compound 0.01581 µM): 0.912
- relative viability (HCC-44; first compound 0.05 µM): 0.859
- relative viability (HCC-44; first compound 0.1581 µM): 0.927
- relative viability (HCC-44; first compound 0.5 µM): 0.882
- relative viability (NCI-H23; first compound 0.005 µM): 0.894
- relative viability (NCI-H23; first compound 0.01581 µM): 1.3
- relative viability (NCI-H23; first compound 0.05 µM): 1.24
- relative viability (NCI-H23; first compound 0.1581 µM): 1.02
- relative viability (NCI-H23; first compound 0.5 µM): 1.02
- relative viability (HARA; first compound 0.005 µM): 1.04
- relative viability (HARA; first compound 0.01581 µM): 1.11
- relative viability (HARA; first compound 0.05 µM): 0.643
- relative viability (HARA; first compound 0.1581 µM): 1.08
- relative viability (HARA; first compound 0.5 µM): 1.18
- relative viability (BEN; first compound 0.005 µM): 0.826
- relative viability (BEN; first compound 0.01581 µM): 0.807
- relative viability (BEN; first compound 0.05 µM): 0.664
- relative viability (BEN; first compound 0.1581 µM): 0.789
- relative viability (BEN; first compound 0.5 µM): 0.339
- relative viability (NCI-H2126; first compound 0.005 µM): 1.08
- relative viability (NCI-H2126; first compound 0.01581 µM): 1.12
- relative viability (NCI-H2126; first compound 0.05 µM): 1.07
- relative viability (NCI-H2126; first compound 0.1581 µM): 1.12
- relative viability (NCI-H2126; first compound 0.5 µM): 1.15
- relative viability (201T; first compound 0.005 µM): 1.16
- relative viability (201T; first compound 0.01581 µM): 1.13
- relative viability (201T; first compound 0.05 µM): 1
- relative viability (201T; first compound 0.1581 µM): 1.1
- relative viability (201T; first compound 0.5 µM): 1.1
- relative viability (NCI-H838; first compound 0.005 µM): 0.65
- relative viability (NCI-H838; first compound 0.01581 µM): 1.19
- relative viability (NCI-H838; first compound 0.05 µM): 1.17
- relative viability (NCI-H838; first compound 0.1581 µM): 0.75
- relative viability (NCI-H838; first compound 0.5 µM): 0.81
- relative viability (NCI-H596; first compound 0.005 µM): 1.22
- relative viability (NCI-H596; first compound 0.01581 µM): 0.81
- relative viability (NCI-H596; first compound 0.05 µM): 0.904
- relative viability (NCI-H596; first compound 0.1581 µM): 1.22
- relative viability (NCI-H596; first compound 0.5 µM): 0.914
- relative viability (NCI-H727; first compound 0.005 µM): 0.898
- relative viability (NCI-H727; first compound 0.01581 µM): 0.888
- relative viability (NCI-H727; first compound 0.1581 µM): 1.05
- relative viability (NCI-H727; first compound 0.5 µM): 0.767
- relative viability (NCI-H1666; first compound 0.005 µM): 0.791
- relative viability (NCI-H1666; first compound 0.01581 µM): 0.825
- relative viability (NCI-H1666; first compound 0.05 µM): 0.764
- relative viability (NCI-H1666; first compound 0.1581 µM): 0.782
- relative viability (NCI-H1666; first compound 0.5 µM): 0.805
- relative viability (NCI-H2347; first compound 0.005 µM): 1.71
- relative viability (NCI-H2347; first compound 0.05 µM): 0.812
- relative viability (NCI-H2347; first compound 0.1581 µM): 1.03
- relative viability (NCI-H2347; first compound 0.5 µM): 1.09
- relative viability (NCI-H441; first compound 0.005 µM): 0.349
- relative viability (NCI-H441; first compound 0.01581 µM): 0.737
- relative viability (NCI-H441; first compound 0.05 µM): 0.379
- relative viability (NCI-H441; first compound 0.1581 µM): 0.424
- relative viability (NCI-H441; first compound 0.5 µM): 0.496
- relative viability (NCI-H2009; first compound 0.005 µM): 0.958
- relative viability (NCI-H2009; first compound 0.01581 µM): 1.19
- relative viability (NCI-H2009; first compound 0.05 µM): 0.953
- relative viability (NCI-H2009; first compound 0.1581 µM): 0.979
- relative viability (NCI-H2009; first compound 0.5 µM): 1.02
- relative viability (NCI-H3122; first compound 0.005 µM): 1.04
- relative viability (NCI-H3122; first compound 0.01581 µM): 1.02
- relative viability (NCI-H3122; first compound 0.05 µM): 1.04
- relative viability (NCI-H3122; first compound 0.1581 µM): 1.03
- relative viability (NCI-H3122; first compound 0.5 µM): 1.01
